Data as given in US6362206B1, “Azole compounds, their production and use” (Takeda Chemical Industries, Ltd., priority 1995, dated 2002).

Experiments:
Candida albicans TA = test: Protective effect against Candida albicans infection in mice (oral, ED50 from survival rate); type: in vivo; conditions: Crj: CDF1 mice inoculated i.v. with minimum lethal dose of Candida albicans TA, single oral dose immediately after infection as 30% HPCD solution, Reed and Muench method from survival rate 7 days after infection; for ED50: 168 h
Experimental: Test Method: Five-week-old Crj: CDF1 mice were inoculated with the minimum lethal dose of Candida albicans TA intravenously. The test compounds were administered orally once immediately after infection as a 30% HPCD (hydroxypropyl-β-cyclodextrin) solution. The activity was expressed in terms of ED50 value calculated by the Reed and Muench method from the survival rate 7 days after infection.

Compound: C[C@@H](n1ncn(-c2ccc(-n3ccnn3)cc2)c1=O)[C@](O)(Cn1cncn1)c1ccc(F)cc1F [Compound 6, 2-[(1R,2R)-2-(2,4-difluorophenyl)-2-hydroxy-1-methyl-3-(1H-1,2,4-triazol-1-yl)propyl]-4-[4-(1H-1,2,3-triazol-1-yl)phenyl]-3(2H,4H)-1,2,4-triazolone]
- ED50 (Candida albicans TA): 0.35 mg/kg
- melting point: 219 to 220 °C

Compound: C[C@@H](n1ccn(-c2ccc(-n3ccnn3)cc2)c1=O)[C@](O)(Cn1cncn1)c1ccc(F)cc1F [Compound 11, 1-[(1R,2R)-2-(2,4-difluorophenyl)-2-hydroxy-1-methyl-3-(1H-1,2,4-triazol-1-yl)propyl]-3-[4-(1H-1,2,3-triazol-1-yl)phenyl]-2(1H,3H)-imidazolone]
- ED50 (Candida albicans TA): 0.45 mg/kg
- melting point: 178 to 181 °C

Compound: C[C@@H](n1ncn(-c2ccc(-n3cncn3)cc2)c1=O)[C@](O)(Cn1cncn1)c1ccc(F)cc1F [Compound 5, 2-[(1R,2R)-2-(2,4-difluorophenyl)-2-hydroxy-1-methyl-3-(1H-1,2,4-triazol-1-yl)propyl]-4-[4-(1H-1,2,4-triazol-1-yl)phenyl]-3(2H,4H)-1,2,4-triazolone]
- ED50 (Candida albicans TA): 0.22 mg/kg
- melting point: 182 to 184 °C

Compound: C[C@@H](n1ccn(-c2ccc(-n3nccn3)cc2)c1=O)[C@](O)(Cn1cncn1)c1ccc(F)cc1F [Compound 13, 1-[(1R,2R)-2-(2,4-difluorophenyl)-2-hydroxy-1-methyl-3-(1H-1,2,4-triazol-1-yl)propyl]-3-[4-(2H-1,2,3-triazol-2-yl)phenyl]-2(1H,3H)-imidazolone]
- ED50 (Candida albicans TA): 0.18 mg/kg
- melting point: 182 to 185 °C

Compound: C[C@@H](n1ccn(-c2ccc(-n3cnnn3)cc2)c1=O)[C@](O)(Cn1cncn1)c1ccc(F)cc1F [Compound 42, 1-[(1R,2R)-2-(2,4-difluorophenyl)-2-hydroxy-1-methyl-3-(1H-1,2,4-triazol-1-yl)propyl]-3-[4-(1H-1-tetrazolyl)phenyl]-2(1H,3H)-imidazolone]
- ED50 (Candida albicans TA): 0.22 mg/kg

Compound: C[C@@H](N1CCN(c2ccc(-n3ccnn3)cc2)C1=O)[C@](O)(Cn1cncn1)c1ccc(F)cc1F [Compound 12, 1-[(1R,2R)-2-(2,4-difluorophenyl)-2-hydroxy-1-methyl-3-(1H-1,2,4-triazol-1-yl)propyl]-3-[4-(1H-1,2,3-triazol-1-yl)phenyl]-2-imidazolidinone]
- ED50 (Candida albicans TA): 0.71 mg/kg

Compound: C[C@@H](n1ccn(-c2ccc(-n3cncn3)cc2)c1=O)[C@](O)(Cn1cncn1)c1ccccc1F [Compound 38, 1-[(1R,2R)-2-(2-fluorophenyl)-2-hydroxy-1-methyl-3-(1H-1,2,4-triazol-1-yl)propyl]-3-[4-[1H-1,2,4-triazol-1-yl)phenyl]-2(1H,3H)-imidazolone]
- ED50 (Candida albicans TA): 0.5 mg/kg

Compound: C[C@@H](n1ccn(-c2ccc(-n3ncnn3)cc2)c1=O)[C@](O)(Cn1cncn1)c1ccccc1F [Compound 40, 1-[(1R,2R)-2-(2-fluorophenyl)-2-hydroxy-1-methyl-3-(1H-1,2,4-triazol-1-yl)propyl]-3-[4-(2H-2-tetrazolyl)phenyl]-2(1H,3H)-imidazolone]
- ED50 (Candida albicans TA): 0.35 mg/kg

Compound: C[C@@H](N1CCN(c2ccc(-n3nccn3)cc2)C1=O)[C@](O)(Cn1cncn1)c1ccccc1F [Compound 35, 1-[(1R,2R)-2-(2-fluorophenyl)-2-hydroxy-1-methyl-3-(1H-1,2,4-triazol-1-yl)propyl]-3-[4-(2H-1,2,3-triazol-2-yl)phenyl]-2-imidazolidinone]
- ED50 (Candida albicans TA): 0.71 mg/kg
- melting point: 178 to 179 °C

Compound: C[C@@H](N1CCN(c2ccc(-n3cnnn3)cc2)C1=O)[C@](O)(Cn1cncn1)c1ccc(F)cc1F [Compound 43, 1-[(1R,2R)-2-(2,4— difluorophenyl)-2-hydroxy-1-methyl-3-(1H-1,2,4-triazol-1-yl)propyl]-3-[4-(1H-1-tetrazolyl)phenyl]-2-imidazolidinone]
- ED50 (Candida albicans TA): 0.89 mg/kg

Compound: 1-[((1R,2R)-2-(2,4-difluorophenyl)-2-hydroxy-1-methyl-3-(1H-1,2,4-triazol-1-yl)propyl]-3-[4-(1H-1,2,4-triazol-1-yl)phenyl]-2(1H,3H)-imidazolone [Compound 9]
- ED50 (mg/kg) PO (Candida albicans TA): 0.16 mg/kg

Compound: C[C@@H](n1ncn(-c2ccc(-n3ncnn3)cc2)c1=O)[C@](O)(Cn1cncn1)c1ccc(F)cc1F [Compound 25, 2-[(1R,2R)-2-(2,4-difluorophenyl)-2-hydroxy-1-methyl-3-(1H-1,2,4-triazol-1-yl)propyl]-4-[4-(2H-2-tetrazolyl)phenyl]-3(2H,4H)-1,2,4-triazolone]
- ED50 (Candida albicans TA): 0.088 mg/kg

Compound: C[C@@H](n1ncn(-c2ccc(-n3nccn3)cc2)c1=O)[C@](O)(Cn1cncn1)c1ccc(F)cc1F [Compound 7, 2-[(1R,2R)-2-(2,4-difluorophenyl)-2-hydroxy-1-methyl-3-(1H-1,2,4-triazol-1-yl)propyl]-4-(4-(2H-1,2,3-triazol-2-yl)phenyl]-3(2H,4H)-1,2,4-triazolone]
- ED50 (Candida albicans TA): 0.096 mg/kg
- melting point: 213 to 215 °C

Compound: C[C@@H](N1CCN(c2ccc(-n3cnnn3)cc2)C1=O)[C@](O)(Cn1cncn1)c1ccccc1F [Compound 45, 1-[(1R,2R)-2-(2-fluorophenyl)-2-hydroxy-1-methyl-3-(1H-1,2,4-triazol-1-yl)propyl]-3-[4-(1H-1-tetrazolyl)phenyl]-2-imidazolidinone]
- ED50 (Candida albicans TA): 0.45 mg/kg

Compound: 1-[(1R,2R)-2-(2,4-difluorophenyloy)-2-hydroxy-1-methyl-3-(1H-1,2,4-triazol-1-yl)propyl]-3-[4-(2H-1,2,3-triazol-2-yl)phenyl]-2-imidazolidinone [Compound 14]
- ED50 (mg/kg) PO (Candida albicans TA): 0.32 mg/kg

Compound: 1-[(1R,2R)-2-(2,4-difluorophenyl)-2-hydroxy-1-methyl-3-(1H-1,2,4-triazol-17 yl)propyl]-3-[4-(1H-1,2,4-triazol-1-yl)phenyl]-2-imidazolidinone [Compound 10]
- ED50 (mg/kg) PO (Candida albicans TA): 0.32 mg/kg

Compound: C[C@@H](n1ccn(-c2ccc(-n3ncnn3)cc2)c1=O)[C@](O)(Cn1cncn1)c1ccc(F)cc1F [Compound 26, 1-[(1R,2R)-2-(2,4-difluorophenyl)-2-hydroxy-1-methyl-3-(1H-1,2,4-triazol-1-yl)propyl]-3-[4-(2H-2-tetrazolyl)phenyl]-2(1H,3H)-imidazolone]
- ED50 (Candida albicans TA): 0.16 mg/kg

Compound: C[C@@H](N1CCN(c2ccc(-n3ncnn3)cc2)C1=O)[C@](O)(Cn1cncn1)c1ccccc1F [Compound 41, 1-[(1R,2R)-2-(2-fluorophenyl)-2-hydroxy-1-methyl-3-(1H-1,2,4-triazol-1-yl)propyl]-3-[4-(2H-2-tetrazolyl)phenyl]-2-imidazolidinone]
- ED50 (Candida albicans TA): 0.8 mg/kg

Compound: C[C@@H](n1ncn(-c2ccc(-n3cccn3)cc2)c1=O)[C@](O)(Cn1cncn1)c1ccc(F)cc1F [Compound 19, 2-[(1R,2R)-2-(2,4-difluorophenyl)-2-hydroxy-1-methyl-3-(1H-1,2,4-triazol-1-yl)propyl]-4-[4-(1H-1-pyrazolyl)phenyl]-3(2H,4H)-1,2,4-triazolone]
- ED50 (Candida albicans TA): 0.39 mg/kg

Compound: C[C@@H](N1CCN(c2ccc(-n3ccnn3)cc2)C1=O)[C@](O)(Cn1cncn1)c1ccccc1F [Compound 34, [(1R,2R)-2-(2-fluorophenyl)-2-hydroxy-1-methyl-3-(1H-1,2,4-triazol-1-yl)propyl]-3-[4-(1H-1,2,3-triazol-1-yl)phenyl]-2-imidazolidinone]
- ED50 (Candida albicans TA): 0.8 mg/kg

Compound: C[C@@H](N1CCN(c2ccc(-n3ncnn3)cc2)C1=O)[C@](O)(Cn1cncn1)c1ccc(F)cc1F [Compound 27, 1-[(1R,2R)-2-(2,4-difluorophenyl)-2-hydroxy-1-methyl-3-(1H-1,2,4-triazol-1-yl)propyl]-3-[4-(2H-2-tetrazolyl)phenyl]-2-imidazolidinone]
- ED50 (Candida albicans TA): 0.18 mg/kg

Compound: 1-[(1R,2R)-2-(2-fluorophenyl)-2:-hydroxy-1-methyl-3-(1H-1,2,4-triazol-1-yl)propyl]-3-[4-(1H-1-tetrazolyl)phenyl]-2(1H,3H)-imidazolone [Compound 44]
- ED50 (mg/kg) PO (Candida albicans TA): 0.39 mg/kg

Compound: C[C@@H](N1CCN(c2ccc(-n3cncn3)cc2)C1=O)[C@](O)(Cn1cncn1)c1ccccc1F [Compound 39, 1-[(1R,2R)-2-(2-fluorophenyl)-2-hydroxy-1-methyl-3-(1H-1,2,4-triazol-1-yl)propyl]-3-[4-(1H-1,2,4-triazol-1-yl)phenyl]-2-imidazolidinone]
- ED50 (Candida albicans TA): 0.5 mg/kg
